Laboratory results: ChEMBL document CHEMBL5291721, “A preclinical secondary pharmacology resource illuminates target-adverse drug reaction associations of marketed drugs” (Nat Commun, 2023)

How the values were obtained:
[1] = target: T1, Alpha-1A adrenergic receptor (Homo sapiens, UniProt P35348); type: functional, cell-based
T1 sequence (P35348 whole entry): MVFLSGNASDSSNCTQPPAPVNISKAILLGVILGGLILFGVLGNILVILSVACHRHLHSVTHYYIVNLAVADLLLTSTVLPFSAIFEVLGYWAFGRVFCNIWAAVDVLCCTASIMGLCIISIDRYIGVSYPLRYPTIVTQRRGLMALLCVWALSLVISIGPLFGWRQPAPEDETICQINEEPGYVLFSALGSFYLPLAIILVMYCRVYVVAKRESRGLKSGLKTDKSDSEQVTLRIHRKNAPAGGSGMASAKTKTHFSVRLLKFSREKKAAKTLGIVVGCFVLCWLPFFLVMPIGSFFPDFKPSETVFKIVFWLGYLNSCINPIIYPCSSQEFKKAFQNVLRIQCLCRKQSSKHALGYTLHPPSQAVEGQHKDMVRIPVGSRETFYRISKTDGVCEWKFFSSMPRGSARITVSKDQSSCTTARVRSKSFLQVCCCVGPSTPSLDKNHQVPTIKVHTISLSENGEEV

[2] = target: Glutamate receptor ionotropic, NMDA 1 (Rattus norvegicus, UniProt P35439)
Vasopressin V1a receptor = Vasopressin V1a receptor (Homo sapiens, UniProt P37288)
[3] = target: T2, Alpha-2C adrenergic receptor (Homo sapiens, UniProt P18825); type: functional
T2 sequence (P18825 whole entry): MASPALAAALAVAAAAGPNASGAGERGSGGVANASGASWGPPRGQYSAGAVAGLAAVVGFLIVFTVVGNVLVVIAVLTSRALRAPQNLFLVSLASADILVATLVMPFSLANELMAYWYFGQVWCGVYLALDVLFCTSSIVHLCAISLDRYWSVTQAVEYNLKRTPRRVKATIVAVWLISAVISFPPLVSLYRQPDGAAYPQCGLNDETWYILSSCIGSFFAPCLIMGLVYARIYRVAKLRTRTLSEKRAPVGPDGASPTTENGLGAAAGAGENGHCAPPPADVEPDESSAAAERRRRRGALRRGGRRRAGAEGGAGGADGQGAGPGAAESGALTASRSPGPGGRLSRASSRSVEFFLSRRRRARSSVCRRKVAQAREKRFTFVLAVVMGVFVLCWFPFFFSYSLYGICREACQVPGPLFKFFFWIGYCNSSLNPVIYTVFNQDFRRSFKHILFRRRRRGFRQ

Vasopressin V2 receptor = Vasopressin V2 receptor (Homo sapiens, UniProt P30518)
Histamine H3 receptor = Histamine H3 receptor (Homo sapiens, UniProt Q9Y5N1)
[4] = target: T3, Equilibrative nucleoside transporter 1 (Homo sapiens, UniProt Q99808)
T3 sequence (Q99808 whole entry): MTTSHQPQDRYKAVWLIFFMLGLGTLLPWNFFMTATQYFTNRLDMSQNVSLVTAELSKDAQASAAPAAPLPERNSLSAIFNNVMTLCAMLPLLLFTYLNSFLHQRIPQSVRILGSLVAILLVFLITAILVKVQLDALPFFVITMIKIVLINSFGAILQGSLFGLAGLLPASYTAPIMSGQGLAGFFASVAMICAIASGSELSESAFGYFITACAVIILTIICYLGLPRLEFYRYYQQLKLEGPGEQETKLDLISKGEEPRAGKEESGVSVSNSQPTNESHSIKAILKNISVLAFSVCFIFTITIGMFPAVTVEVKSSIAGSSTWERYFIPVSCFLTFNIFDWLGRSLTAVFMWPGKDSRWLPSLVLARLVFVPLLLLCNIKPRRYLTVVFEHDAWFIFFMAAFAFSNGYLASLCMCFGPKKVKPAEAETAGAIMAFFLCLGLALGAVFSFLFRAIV

[5] = target: T1, Alpha-1A adrenergic receptor; type: functional, cell-based; remark: listed apart in the source
Progesterone receptor = target: T4, Progesterone receptor (Homo sapiens, UniProt P06401); type: functional
T4 sequence (P06401 whole entry): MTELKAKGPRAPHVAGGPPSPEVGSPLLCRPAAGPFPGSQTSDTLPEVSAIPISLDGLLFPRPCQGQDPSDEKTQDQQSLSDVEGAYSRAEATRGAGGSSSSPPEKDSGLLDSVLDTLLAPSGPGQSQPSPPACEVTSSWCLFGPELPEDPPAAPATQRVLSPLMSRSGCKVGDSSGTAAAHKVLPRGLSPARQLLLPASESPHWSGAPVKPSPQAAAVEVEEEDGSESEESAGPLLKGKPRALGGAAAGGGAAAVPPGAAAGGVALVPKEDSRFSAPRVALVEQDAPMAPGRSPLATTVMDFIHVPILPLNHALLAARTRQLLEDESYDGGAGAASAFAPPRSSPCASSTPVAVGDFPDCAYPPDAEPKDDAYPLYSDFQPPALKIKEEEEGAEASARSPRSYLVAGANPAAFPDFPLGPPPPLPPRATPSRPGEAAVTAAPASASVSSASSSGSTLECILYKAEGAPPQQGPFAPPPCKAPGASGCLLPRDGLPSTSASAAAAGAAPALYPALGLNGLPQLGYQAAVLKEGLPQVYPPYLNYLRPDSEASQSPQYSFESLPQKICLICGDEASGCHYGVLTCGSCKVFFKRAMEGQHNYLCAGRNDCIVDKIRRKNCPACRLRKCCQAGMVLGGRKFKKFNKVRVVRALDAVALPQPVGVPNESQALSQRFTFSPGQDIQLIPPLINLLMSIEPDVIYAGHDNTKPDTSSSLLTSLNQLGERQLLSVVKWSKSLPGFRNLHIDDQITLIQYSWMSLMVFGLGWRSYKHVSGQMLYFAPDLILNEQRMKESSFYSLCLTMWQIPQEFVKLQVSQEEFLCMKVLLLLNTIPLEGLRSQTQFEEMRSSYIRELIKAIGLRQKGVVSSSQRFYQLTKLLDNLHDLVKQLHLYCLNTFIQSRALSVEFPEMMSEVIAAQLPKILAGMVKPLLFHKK
Further: assay procedure not described here.

Vasopressin V2 receptor, sequence (P30518 whole entry): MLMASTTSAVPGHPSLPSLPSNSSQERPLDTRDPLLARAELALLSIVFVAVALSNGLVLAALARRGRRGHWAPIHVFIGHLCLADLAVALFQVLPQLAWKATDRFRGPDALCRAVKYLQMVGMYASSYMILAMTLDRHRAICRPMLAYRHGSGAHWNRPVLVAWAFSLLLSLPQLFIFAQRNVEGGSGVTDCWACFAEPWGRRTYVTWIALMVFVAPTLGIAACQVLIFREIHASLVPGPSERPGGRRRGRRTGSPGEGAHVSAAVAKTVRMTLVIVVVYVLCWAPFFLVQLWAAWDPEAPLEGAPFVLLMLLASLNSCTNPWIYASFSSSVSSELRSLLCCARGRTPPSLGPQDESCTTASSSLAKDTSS
Histamine H3 receptor, sequence (Q9Y5N1 whole entry): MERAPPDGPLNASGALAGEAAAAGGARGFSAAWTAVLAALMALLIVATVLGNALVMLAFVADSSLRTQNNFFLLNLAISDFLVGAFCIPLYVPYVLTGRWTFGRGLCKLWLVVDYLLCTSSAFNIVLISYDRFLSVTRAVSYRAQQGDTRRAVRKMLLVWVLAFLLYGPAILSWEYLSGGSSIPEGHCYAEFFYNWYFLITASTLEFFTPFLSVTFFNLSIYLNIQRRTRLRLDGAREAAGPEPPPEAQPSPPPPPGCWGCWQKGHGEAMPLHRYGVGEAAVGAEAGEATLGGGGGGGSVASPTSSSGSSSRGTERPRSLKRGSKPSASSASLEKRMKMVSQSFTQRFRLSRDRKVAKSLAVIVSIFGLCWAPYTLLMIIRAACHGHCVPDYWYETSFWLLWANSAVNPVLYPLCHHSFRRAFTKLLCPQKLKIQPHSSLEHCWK
Vasopressin V1a receptor, sequence (P37288 whole entry): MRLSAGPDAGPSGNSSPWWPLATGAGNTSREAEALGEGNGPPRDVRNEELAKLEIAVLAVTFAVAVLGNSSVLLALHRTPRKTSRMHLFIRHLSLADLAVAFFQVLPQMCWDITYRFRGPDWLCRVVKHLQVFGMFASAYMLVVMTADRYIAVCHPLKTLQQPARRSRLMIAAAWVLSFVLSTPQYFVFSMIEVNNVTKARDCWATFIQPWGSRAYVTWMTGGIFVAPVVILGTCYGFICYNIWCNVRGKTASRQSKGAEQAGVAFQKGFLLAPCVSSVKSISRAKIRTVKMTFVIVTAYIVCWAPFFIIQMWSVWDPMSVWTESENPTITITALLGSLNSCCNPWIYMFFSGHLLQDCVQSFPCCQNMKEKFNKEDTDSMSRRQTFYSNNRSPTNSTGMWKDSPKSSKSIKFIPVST

Row | Compound | AC50 [1] | AC50 [2] | AC50 (Vasopressin V1a receptor) | AC50 [3] | AC50 (Vasopressin V2 receptor) | AC50 (Histamine H3 receptor) | AC50 [4] | AC50 [5] | AC50 (Progesterone receptor)
1 | O=C(Nc1cccc2c(=O)cc(-c3nnn[nH]3)oc12)c1ccc(OCCCCc2ccccc2)cc1 | > 30 µM | – | – | – | – | – | – | – | –
2 | CC[C@@H](CO)NC(=O)[C@@H]1C=C2c3cccc4[nH]cc(c34)C[C@H]2N(C)C1 [METHYLERGONOVINE] | – | > 30 µM | > 30 µM | 1.7 µM | > 30 µM | > 30 µM | – | – | –
3 | CNCCC=C1c2ccccc2CCc2ccccc21 [NORTRIPTYLINE] | – | – | > 30 µM | – | > 30 µM | > 30 µM | > 30 µM | 0.036 µM | > 30 µM
4 | CN(C)c1cc(CNCC(C)(C)C)c(O)c2c1C[C@H]1C[C@H]3[C@H](N(C)C)C(O)=C(C(N)=O)C(=O)[C@@]3(O)C(O)=C1C2=O [OMADACYCLINE] | – | > 30 µM | > 30 µM | > 30 µM | > 30 µM | 24 µM | > 10 µM | > 30 µM | > 30 µM
5 | CNC(=O)c1cc(Oc2ccc(NC(=O)Nc3ccc(Cl)c(C(F)(F)F)c3)c(F)c2)ccn1 [REGORAFENIB] | – | – | – | > 30 µM | – | – | – | > 30 µM | > 30 µM
6 | CC(C)(N)C(=O)N[C@H](Cc1c[nH]c2ccccc12)C(=O)N[C@H](Cc1c[nH]c2ccccc12)NC=O [MACIMORELIN] | > 30 µM | – | – | – | – | – | – | – | –
7 | Nc1nc(O)c2ncn(COC(CO)CO)c2n1 [GANCICLOVIR] | – | > 30 µM | – | > 30 µM | > 30 µM | > 30 µM | > 30 µM | > 30 µM | > 30 µM
8 | C=C(C)[C@@H]1CCC(C)=C[C@H]1c1c(O)cc(CCCCC)cc1O [CANNABIDIOL] | – | – | > 30 µM | > 30 µM | – | 26 µM | > 30 µM | > 10 µM | > 10 µM
9 | Cc1cc(CC(=O)O)n(C)c1C(=O)c1ccc(Cl)cc1 [ZOMEPIRAC] | – | > 30 µM | > 30 µM | > 30 µM | > 30 µM | > 30 µM | > 30 µM | > 30 µM | > 30 µM
10 | CN1CCN(CCCN2c3ccccc3Sc3ccc(S(=O)(=O)N(C)C)cc32)CC1 [THIOPROPERAZINE] | – | > 10 µM | – | 2.6 µM | – | – | – | 1 µM | –
11 | CCC(=O)O[C@@H](O[P@](=O)(CCCCc1ccccc1)CC(=O)N1C[C@H](C2CCCCC2)C[C@H]1C(=O)O)C(C)C [FOSINOPRIL] | – | > 30 µM | – | > 30 µM | – | – | – | > 30 µM | –
12 | CNCC[C@@H](Oc1ccccc1C)c1ccccc1 [ATOMOXETINE] | – | – | > 30 µM | > 30 µM | > 30 µM | 30 µM | – | > 30 µM | > 30 µM
13 | N[C@@H](CSSC[C@H](N)C(=O)O)C(=O)O [CYSTINE] | > 30 µM | – | – | – | – | – | – | – | –
14 | CC(/C=C1\SC(=S)N(CC(=O)O)C1=O)=C\c1ccccc1 | – | > 30 µM | 28 µM | 8.2 µM | > 30 µM | > 30 µM | 15 µM | 25 µM | > 30 µM
15 | CO/N=C(\C(=O)N[C@@H]1C(=O)N2C(C(=O)O)=C(COC(N)=O)CS[C@H]12)c1ccco1 [CEFUROXIME] | – | > 30 µM | > 30 µM | > 30 µM | > 30 µM | > 30 µM | > 30 µM | > 30 µM | –
16 | CN1CCC[C@@H]1Cc1c[nH]c2ccc(CCS(=O)(=O)c3ccccc3)cc12 | > 30 µM | – | – | – | – | – | – | – | –
17 | COc1ccc(Cc2nccc3cc(OC)c(OC)cc23)cc1OC [PAPAVERINE] | – | > 30 µM | – | > 30 µM | > 30 µM | > 30 µM | 10 µM | > 30 µM | > 30 µM
18 | O=C(Nc1c(Cl)cncc1Cl)c1ccc(OC(F)F)c(OCC2CC2)c1 [ROFLUMILAST] | – | > 30 µM | > 30 µM | > 30 µM | > 30 µM | > 30 µM | – | > 30 µM | –
